Laboratory results reported in ChEMBL document CHEMBL1201862, “PubChem BioAssay data set” (2004).
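Interpolation was linear, between the two tested concentrations surrounding the appropriate level; five concentrations were tested over 48 hours in 96-well plates. GI50 = concentration required for 50% inhibition of growth.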 Activity calls are given as the source filed them. Rule as the data show it: active = GI50 up to about 1.1 µM and inactive = higher.

Tests used:
Assay in all cases: NCI tumour cell line growth inhibition, 48 h
TK-10 = test system: TK-10
LOX IMVI = test system: LOX IMVI
HCC 2998 = test system: HCC 2998
MOLT-4 = test system: MOLT-4
COLO 205 = test system: COLO 205
HT-29 = test system: HT-29
T47D = test system: T47D
UACC-62 = test system: UACC-62
ACHN = test system: ACHN
SF-295 = test system: SF-295
SK-MEL-28 = test system: SK-MEL-28
SW-620 = test system: SW-620
NCI-H460 = test system: NCI-H460
EKVX = test system: EKVX
786-0 = test system: 786-0
HCT-15 = test system: HCT-15
A549 = test system: A549
NCI-H23 = test system: NCI-H23
BT-549 = test system: BT-549
SNB-75 = test system: SNB-75
SF-539 = test system: SF-539
OVCAR-5 = test system: OVCAR-5
HL-60 = test system: HL-60
A498 = test system: A498
SK-MEL-2 = test system: SK-MEL-2
MDA-N = test system: MDA-N
KM12 = test system: KM12
MDA-MB-231 = test system: MDA-MB-231
RPMI-8226 = test system: RPMI-8226
HCT-116 = test system: HCT-116
UO-31 = test system: UO-31
SNB-19 = test system: SNB-19
K562 = test system: K562
Hs-578T = test system: Hs-578T
SN12C = test system: SN12C
DU-145 = test system: DU-145
UACC-257 = test system: UACC-257
CCRF-CEM = test system: CCRF-CEM
SF-268 = test system: SF-268
IGROV-1 = test system: IGROV-1
CAKI-1 = test system: CAKI-1
MDA-MB-435 = test system: MDA-MB-435
HOP-92 = test system: HOP-92
SK-OV-3 = test system: SK-OV-3
HOP-62 = test system: HOP-62
RXF 393 = test system: RXF 393
M14 = test system: M14
PC-3 = test system: PC-3
OVCAR-4 = test system: OVCAR-4
U-251 = test system: U-251
NCI/ADR-RES = test system: NCI/ADR-RES
MCF7 = test system: MCF7
SK-MEL-5 = test system: SK-MEL-5
SR = test system: SR
OVCAR-3 = test system: OVCAR-3
OVCAR-8 = test system: OVCAR-8
NCI-H226 = test system: NCI-H226
NCI-H522 = test system: NCI-H522
Malme-3M = test system: Malme-3M

SMILES: c1ccc2c(c1)nc1n2CCSC1
- GI50 (TK-10): > 100 µM (inactive)
- GI50 (LOX IMVI): > 100 µM (inactive)
- GI50 (HCC 2998): > 100 µM (inactive)
- GI50 (MOLT-4): > 100 µM (inactive)
- GI50 (COLO 205): > 100 µM (inactive)
- GI50 (HT-29): > 100 µM (inactive)
- GI50 (T47D): > 100 µM (inactive)
- GI50 (UACC-62): > 100 µM (inactive)
- GI50 (ACHN): > 100 µM (inactive)
- GI50 (SF-295): > 100 µM (inactive)
- GI50 (SK-MEL-28): > 100 µM (inactive)
- GI50 (SW-620): > 100 µM (inactive)
- GI50 (NCI-H460): > 100 µM (inactive)
- GI50 (EKVX): > 100 µM (inactive)
- GI50 (786-0): > 100 µM (inactive)
- GI50 (HCT-15): > 100 µM
- GI50 (A549): > 100 µM (inactive)
- GI50 (NCI-H23): > 100 µM (inactive)
- GI50 (BT-549): > 100 µM (inactive)
- GI50 (SNB-75): > 100 µM (inactive)
- GI50 (SF-539): > 100 µM (inactive)
- GI50 (OVCAR-5): > 100 µM (inactive)
- GI50 (HL-60): > 100 µM (inactive)
- GI50 (A498): > 100 µM (inactive)
- GI50 (SK-MEL-2): > 100 µM (inactive)
- GI50 (MDA-N): > 100 µM (inactive)
- GI50 (KM12): > 100 µM (inactive)
- GI50 (MDA-MB-231): > 100 µM (inactive)
- GI50 (RPMI-8226): > 100 µM (inactive)
- GI50 (HCT-116): > 100 µM (inactive)
- GI50 (UO-31): > 100 µM (inactive)
- GI50 (SNB-19): > 100 µM (inactive)
- GI50 (K562): > 100 µM (inactive)
- GI50 (Hs-578T): > 100 µM (inactive)
- GI50 (SN12C): > 100 µM (inactive)
- GI50 (DU-145): > 100 µM (inactive)
- GI50 (UACC-257): > 100 µM (inactive)
- GI50 (CCRF-CEM): > 100 µM (inactive)
- GI50 (SF-268): > 100 µM (inactive)
- GI50 (IGROV-1): 74.8 µM (inactive)
- GI50 (CAKI-1): > 100 µM (inactive)
- GI50 (MDA-MB-435): > 100 µM (inactive)
- GI50 (HOP-92): > 100 µM (inactive)
- GI50 (SK-OV-3): > 100 µM (inactive)
- GI50 (HOP-62): > 100 µM (inactive)
- GI50 (RXF 393): > 100 µM (inactive)
- GI50 (M14): > 100 µM (inactive)
- GI50 (PC-3): > 100 µM (inactive)
- GI50 (OVCAR-4): > 100 µM (inactive)
- GI50 (U-251): > 100 µM (inactive)
- GI50 (NCI/ADR-RES): > 100 µM (inactive)
- GI50 (MCF7): > 100 µM (inactive)
- GI50 (SK-MEL-5): > 100 µM (inactive)
- GI50 (SR): > 100 µM (inactive)
- GI50 (OVCAR-3): > 100 µM (inactive)

SMILES: CCn1c(SCC(=O)NNC(=S)Nc2ccc([N+](=O)[O-])cc2)nc2ccccc2c1=O
- GI50 (TK-10): 68.9 µM (inactive)
- GI50 (LOX IMVI): 54.3 µM (inactive)
- GI50 (OVCAR-8): > 100 µM (inactive)
- GI50 (HCC 2998): 50.1 µM (inactive)
- GI50 (MOLT-4): 23.2 µM (inactive)
- GI50 (COLO 205): 47.5 µM (inactive)
- GI50 (T47D): 64.3 µM (inactive)
- GI50 (UACC-62): 48.9 µM (inactive)
- GI50 (ACHN): > 100 µM (inactive)
- GI50 (SF-295): 58.2 µM (inactive)
- GI50 (SK-MEL-28): 57.5 µM (inactive)
- GI50 (SW-620): 86.5 µM (inactive)
- GI50 (NCI-H460): 48.8 µM (inactive)
- GI50 (EKVX): > 100 µM (inactive)
- GI50 (786-0): 60.5 µM (inactive)
- GI50 (HCT-15): 47 µM
- GI50 (A549): > 100 µM (inactive)
- GI50 (NCI-H23): 62.5 µM (inactive)
- GI50 (BT-549): 53.8 µM (inactive)
- GI50 (SNB-75): 83.4 µM (inactive)
- GI50 (NCI-H226): 90.4 µM (inactive)
- GI50 (SF-539): > 100 µM (inactive)
- GI50 (OVCAR-5): > 100 µM (inactive)
- GI50 (HL-60): 40.7 µM (inactive)
- GI50 (A498): 48.2 µM (inactive)
- GI50 (SK-MEL-2): > 100 µM (inactive)
- GI50 (MDA-N): > 100 µM (inactive)
- GI50 (KM12): 68.2 µM (inactive)
- GI50 (MDA-MB-231): > 100 µM (inactive)
- GI50 (RPMI-8226): 29.9 µM (inactive)
- GI50 (HCT-116): 35.3 µM (inactive)
- GI50 (UO-31): 39.5 µM (inactive)
- GI50 (SNB-19): 81.7 µM (inactive)
- GI50 (K562): 42.7 µM (inactive)
- GI50 (NCI-H522): 39.8 µM (inactive)
- GI50 (Hs-578T): > 100 µM (inactive)
- GI50 (SN12C): 50.9 µM (inactive)
- GI50 (DU-145): > 100 µM (inactive)
- GI50 (UACC-257): > 100 µM (inactive)
- GI50 (CCRF-CEM): 37.2 µM (inactive)
- GI50 (SF-268): 60.1 µM (inactive)
- GI50 (IGROV-1): > 100 µM (inactive)
- GI50 (CAKI-1): > 100 µM (inactive)
- GI50 (MDA-MB-435): > 100 µM (inactive)
- GI50 (SK-OV-3): > 100 µM (inactive)
- GI50 (HOP-62): 81.1 µM (inactive)
- GI50 (RXF 393): 34.5 µM (inactive)
- GI50 (M14): > 100 µM (inactive)
- GI50 (PC-3): 41.4 µM (inactive)
- GI50 (OVCAR-4): 48.5 µM (inactive)
- GI50 (U-251): 73.3 µM (inactive)
- GI50 (NCI/ADR-RES): > 100 µM (inactive)
- GI50 (Malme-3M): 73.5 µM (inactive)
- GI50 (MCF7): 83.4 µM (inactive)
- GI50 (SK-MEL-5): 79.6 µM (inactive)
- GI50 (SR): 23 µM (inactive)
- GI50 (OVCAR-3): 39.2 µM (inactive)
